Results as given in patent US20240101576A1, “HETEROCYCLIC INHIBITORS OF EGFR AND/OR HER2, FOR USE IN THE TREATMENT OF CANCER” (Scorpion Therapeutics, Inc., priority 2020, published 2024).

What was measured:
Assay type in all cases: cell-based
[1] = molecular target: T1, EGFR L858R (Ba/F3 cells) (Homo sapiens, UniProt P00533, L858R); assay: Inhibitor activity on EGFR-dependent cell growth (CellTiter-Glo, 72 h), Ba/F3 EGFR L858R; details: read-out: BaF3 L858R IC50
T1 construct: expressed in transfected cells; host or cells: Ba/F3 (murine pro-B cells), retroviral transduction, puromycin selection, IL3-independent pool
From the text: (§1) Example A. Inhibitor Activity on EGFR-Dependent Cell Growth
(§2) Cell lines are generated by transducing Ba/F3 cells with retroviruses containing vectors with EGFR WT, EGFR L858R, EGFR exon 19del, EGFR L858R/C797S, EGFR exon 20 NPG Ins D770_N771, EGFR exon 20 ASV Ins V769_D770, EGFR exon 20 SVD Ins D770_N771, or EGFR exon 20 FQEA Ins A763_V764 genes and a puromycin selection marker. Transduced cells are selected with puromycin for 7 days and are then be transferred into culture media without Interleukin 3 (IL3). EGFR WT cells are maintained with supplemental EGF. Surviving cells are confirmed to express EGFR by Western blot and maintained as a pool. The IC50 date were included in Table 6 and Table 7.
(§3) 1.1 Cells are harvested from flask into cell culture medium and the cell number counted.
(§4) 1.2 Cells are diluted with culture medium to the desired density and 40 μL of cell suspension is added into each well of 384-well cell culture plate and the seeding density is 800 (FQEA, exon 19del), 600 (WT, NPG, L858R/C797S), or 400 (ASV, SVD, L858R) cells/well.
(§5) 2 Compound Preparation and Treatment
(§6) 2.1 Test compounds are dissolved to 10 mM in a DMSO stock solution. 45 μL of stock solution is transferred to a 384 polypropylene plate (pp-plate). Perform 3-fold, 10-point dilution via transferring 15 μL compound into 30 μL DMSO using a TECAN (EVO200) liquid handler.
(§7) 2.2 Spin plates at room temperature at 1,000 RPM for 1 minute.
(§8) 2.3 Transfer 120 nL of diluted compound from compound source plate into the cell plate.
(§9) 2.4 After compound treatment for 72 hours, perform CTG detection for compound treatment plates as described in “Detection” section.
(§10) 3.1 Plates are removed from incubators and equilibrated at room temperature for 15 minutes.
(§11) 3.2 Thaw the CellTiter Glo reagents and allow to equilibrate to room temperature before the experiment.
(§12) 3.3 Add 40 μL of CellTiter-Glo reagent into each well (at 1:1 to culture medium). Then place the plates at room temperature for 30 min followed by reading on EnVision.
(§13) 4.1 Inhibition activity is calculated following the formula below:
(§14) % Inhibition=100×(LumHC−LumSample)/(LumHC−LumLC) • where HC is obtained from cells treated with 0.1% DMSO only; and LC is obtained from culture medium only.
(§15) 4.2 2. Calculate the IC50 by fitting the Curve using Xlfit (v5.3.1.3), equation 201.
(§16) Y=Bottom+(Top−Bottom)/(1+10^((Log IC50−X)*HillSlope))

[2] = molecular target: EGFR exon 19del (Ba/F3 cells) (Homo sapiens, UniProt P00533); assay: Inhibitor activity on EGFR-dependent cell growth (CellTiter-Glo, 72 h), Ba/F3 EGFR exon 19del; details: Ba/F3 EGFR exon 19del cell growth, read-out: BaF3 Del19 IC50
From the text: as §1, §2, §3, §4, §5, §6, §7, §8, §9, §10, §11, §12, §13, §14, §15, §16

[3] = molecular target: T2, EGFR WT (Ba/F3 cells) (Homo sapiens, UniProt P00533); assay: Inhibitor activity on EGFR-dependent cell growth (CellTiter-Glo, 72 h), Ba/F3 EGFR WT; details: read-out: BaF3 WT IC50
T2 construct: expressed in transfected cells; host or cells: Ba/F3 (murine pro-B cells), retroviral transduction, puromycin selection, maintained with EGF
Summary of the method: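 This growth assay used Ba/F3 cells that depend on wild-type EGFR and are kept in EGF without IL3. Compounds were made up as 10 mM DMSO stocks and diluted 3-fold over 10 points. 120 nL went onto 600 cells/well. After 72 hours, 40 μL CellTiter-Glo was added and luminescence read on EnVision after 30 min.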

[4] = molecular target: T3, EGFR exon 20 NPG Ins D770_N771 (Ba/F3 cells) (Homo sapiens, UniProt P00533, INS770NPG); assay: Inhibitor activity on EGFR-dependent cell growth (CellTiter-Glo, 72 h), Ba/F3 EGFR exon 20 NPG Ins; details: read-out: BaF3 NPG IC50
T3 construct: expressed in transfected cells; host or cells: Ba/F3 (murine pro-B cells), retroviral transduction, puromycin selection, IL3-independent pool
Summary of the method: (§17)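 IC50s derive from a sigmoidal dose–response fit of CellTiter-Glo signal. The signal was normalised between […]-treated cells and cell-free medium. Ba/F3 mutant-EGFR cells, seeded at 400–800/well depending on the line, had 72 h of exposure to a 10-point, 3-fold compound series.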

[5] = molecular target: T4, EGFR exon 20 ASV Ins V769_D770 (Ba/F3 cells) (Homo sapiens, UniProt P00533, INS769ASV); assay: Inhibitor activity on EGFR-dependent cell growth (CellTiter-Glo, 72 h), Ba/F3 EGFR exon 20 ASV Ins; details: read-out: BaF3 ASV IC50
T4 construct: expressed in transfected cells; host or cells: Ba/F3 (murine pro-B cells), retroviral transduction, puromycin selection, IL3-independent pool
Summary of the method: as §17

[6] = molecular target: T5, EGFR exon 20 FQEA Ins A763_V764 (Ba/F3 cells) (Homo sapiens, UniProt P00533, INS763FQEA); assay: Inhibitor activity on EGFR-dependent cell growth (CellTiter-Glo, 72 h), Ba/F3 EGFR exon 20 FQEA Ins; details: read-out: BaF3 FQEA IC50
T5 construct: expressed in transfected cells; host or cells: Ba/F3 (murine pro-B cells), retroviral transduction, puromycin selection, IL3-independent pool
Summary of the method: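 72 h proliferation, Ba/F3 EGFR mutants (no IL3, puromycin-selected pools, EGFR confirmed by Western blot). Seeding of 400 L858R, 600 L858R/C797S and 800 exon 19del/FQEA cells per well. CellTiter-Glo used; controls were […] (high) and medium alone (low).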

[7] = molecular target: T3, EGFR exon 20 NPG Ins D770_N771 (Ba/F3 cells); assay: Inhibitor activity on EGFR phosphorylation (pEGFR AlphaLISA, 2 h), Ba/F3 EGFR exon 20 NPG Ins
Summary of the method: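 Steps: seed cells (Ba/F3 50K, CUTO14 12.5K per well); add 3-fold, 10-point compound dilution; incubate 2 h; lyse 1 hr; add acceptor then donor beads (1.5 hrs, RT, dark); read AlphaLISA signal for IC50.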

[8] = molecular target: T6, EGFR exon 20 SVD Ins D770_N771 (Ba/F3 cells) (Homo sapiens, UniProt P00533, INS770SVD); assay: Inhibitor activity on EGFR-dependent cell growth (CellTiter-Glo, 72 h), Ba/F3 EGFR exon 20 SVD Ins; details: read-out: BaF3 SVD IC50
T6 construct: expressed in transfected cells; host or cells: Ba/F3 (murine pro-B cells), retroviral transduction, puromycin selection, IL3-independent pool
Summary of the method: as §17

T1 sequence (P00533 25-1210 L858R): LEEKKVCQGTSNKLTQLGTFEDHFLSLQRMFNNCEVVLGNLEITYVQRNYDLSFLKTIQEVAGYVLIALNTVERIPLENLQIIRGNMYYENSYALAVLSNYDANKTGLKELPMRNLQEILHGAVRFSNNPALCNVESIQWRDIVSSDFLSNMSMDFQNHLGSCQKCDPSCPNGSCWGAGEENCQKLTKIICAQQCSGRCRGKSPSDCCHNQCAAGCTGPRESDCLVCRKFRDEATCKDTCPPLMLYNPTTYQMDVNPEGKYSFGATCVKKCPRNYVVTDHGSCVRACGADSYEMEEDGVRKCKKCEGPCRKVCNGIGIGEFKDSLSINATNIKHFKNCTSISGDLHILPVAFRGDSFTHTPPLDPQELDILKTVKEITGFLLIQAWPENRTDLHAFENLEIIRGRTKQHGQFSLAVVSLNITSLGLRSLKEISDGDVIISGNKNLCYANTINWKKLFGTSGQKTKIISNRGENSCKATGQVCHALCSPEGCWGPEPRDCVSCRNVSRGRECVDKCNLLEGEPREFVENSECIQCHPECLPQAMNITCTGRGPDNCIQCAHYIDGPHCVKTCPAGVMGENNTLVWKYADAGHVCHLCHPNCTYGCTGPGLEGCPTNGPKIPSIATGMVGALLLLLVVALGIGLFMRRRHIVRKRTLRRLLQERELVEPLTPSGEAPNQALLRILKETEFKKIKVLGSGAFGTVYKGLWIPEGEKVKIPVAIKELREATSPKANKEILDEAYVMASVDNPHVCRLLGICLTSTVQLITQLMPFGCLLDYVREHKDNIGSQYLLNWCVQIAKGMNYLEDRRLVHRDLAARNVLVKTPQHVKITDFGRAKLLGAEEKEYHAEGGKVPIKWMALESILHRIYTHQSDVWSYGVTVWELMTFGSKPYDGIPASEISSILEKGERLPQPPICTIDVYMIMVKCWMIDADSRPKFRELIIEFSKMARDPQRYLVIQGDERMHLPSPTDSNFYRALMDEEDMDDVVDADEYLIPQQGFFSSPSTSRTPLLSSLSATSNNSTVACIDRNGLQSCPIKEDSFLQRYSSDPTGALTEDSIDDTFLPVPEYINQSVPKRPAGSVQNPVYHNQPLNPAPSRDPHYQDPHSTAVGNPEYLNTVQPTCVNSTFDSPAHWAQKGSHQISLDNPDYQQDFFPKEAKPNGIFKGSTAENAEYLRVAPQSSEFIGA
T3 sequence (P00533 with tags, fused parts or gaps INS770NPG): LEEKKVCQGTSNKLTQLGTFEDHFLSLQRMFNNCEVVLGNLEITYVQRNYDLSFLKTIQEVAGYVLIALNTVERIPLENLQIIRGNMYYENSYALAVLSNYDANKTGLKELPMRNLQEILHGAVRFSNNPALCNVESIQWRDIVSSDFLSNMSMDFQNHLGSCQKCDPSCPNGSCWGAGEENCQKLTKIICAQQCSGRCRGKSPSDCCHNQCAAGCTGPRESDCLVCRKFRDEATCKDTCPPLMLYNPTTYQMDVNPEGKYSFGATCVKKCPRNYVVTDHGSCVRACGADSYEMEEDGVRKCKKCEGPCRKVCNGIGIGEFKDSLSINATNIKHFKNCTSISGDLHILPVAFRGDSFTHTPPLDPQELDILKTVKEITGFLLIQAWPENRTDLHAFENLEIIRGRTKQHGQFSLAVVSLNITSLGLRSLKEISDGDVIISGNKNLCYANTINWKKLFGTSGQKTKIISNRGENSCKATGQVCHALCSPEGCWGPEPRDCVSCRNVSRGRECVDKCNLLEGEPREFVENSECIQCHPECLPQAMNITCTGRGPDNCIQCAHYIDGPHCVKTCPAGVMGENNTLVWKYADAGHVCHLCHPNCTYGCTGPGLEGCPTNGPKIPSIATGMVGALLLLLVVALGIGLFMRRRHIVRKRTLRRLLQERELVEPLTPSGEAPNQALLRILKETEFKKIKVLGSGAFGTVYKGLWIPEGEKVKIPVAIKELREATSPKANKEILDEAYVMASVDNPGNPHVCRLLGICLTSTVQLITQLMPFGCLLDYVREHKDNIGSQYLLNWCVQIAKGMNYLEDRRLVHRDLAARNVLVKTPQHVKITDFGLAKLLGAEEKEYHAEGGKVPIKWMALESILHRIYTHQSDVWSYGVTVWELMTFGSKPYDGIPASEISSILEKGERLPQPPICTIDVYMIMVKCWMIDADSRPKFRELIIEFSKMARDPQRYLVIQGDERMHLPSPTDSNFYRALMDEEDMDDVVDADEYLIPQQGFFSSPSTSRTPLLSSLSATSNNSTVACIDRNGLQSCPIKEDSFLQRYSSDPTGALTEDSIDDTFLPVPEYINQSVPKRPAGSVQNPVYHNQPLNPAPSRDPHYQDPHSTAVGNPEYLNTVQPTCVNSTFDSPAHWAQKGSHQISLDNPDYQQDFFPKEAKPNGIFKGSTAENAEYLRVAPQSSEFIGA
T5 sequence (P00533 with tags, fused parts or gaps INS763FQEA): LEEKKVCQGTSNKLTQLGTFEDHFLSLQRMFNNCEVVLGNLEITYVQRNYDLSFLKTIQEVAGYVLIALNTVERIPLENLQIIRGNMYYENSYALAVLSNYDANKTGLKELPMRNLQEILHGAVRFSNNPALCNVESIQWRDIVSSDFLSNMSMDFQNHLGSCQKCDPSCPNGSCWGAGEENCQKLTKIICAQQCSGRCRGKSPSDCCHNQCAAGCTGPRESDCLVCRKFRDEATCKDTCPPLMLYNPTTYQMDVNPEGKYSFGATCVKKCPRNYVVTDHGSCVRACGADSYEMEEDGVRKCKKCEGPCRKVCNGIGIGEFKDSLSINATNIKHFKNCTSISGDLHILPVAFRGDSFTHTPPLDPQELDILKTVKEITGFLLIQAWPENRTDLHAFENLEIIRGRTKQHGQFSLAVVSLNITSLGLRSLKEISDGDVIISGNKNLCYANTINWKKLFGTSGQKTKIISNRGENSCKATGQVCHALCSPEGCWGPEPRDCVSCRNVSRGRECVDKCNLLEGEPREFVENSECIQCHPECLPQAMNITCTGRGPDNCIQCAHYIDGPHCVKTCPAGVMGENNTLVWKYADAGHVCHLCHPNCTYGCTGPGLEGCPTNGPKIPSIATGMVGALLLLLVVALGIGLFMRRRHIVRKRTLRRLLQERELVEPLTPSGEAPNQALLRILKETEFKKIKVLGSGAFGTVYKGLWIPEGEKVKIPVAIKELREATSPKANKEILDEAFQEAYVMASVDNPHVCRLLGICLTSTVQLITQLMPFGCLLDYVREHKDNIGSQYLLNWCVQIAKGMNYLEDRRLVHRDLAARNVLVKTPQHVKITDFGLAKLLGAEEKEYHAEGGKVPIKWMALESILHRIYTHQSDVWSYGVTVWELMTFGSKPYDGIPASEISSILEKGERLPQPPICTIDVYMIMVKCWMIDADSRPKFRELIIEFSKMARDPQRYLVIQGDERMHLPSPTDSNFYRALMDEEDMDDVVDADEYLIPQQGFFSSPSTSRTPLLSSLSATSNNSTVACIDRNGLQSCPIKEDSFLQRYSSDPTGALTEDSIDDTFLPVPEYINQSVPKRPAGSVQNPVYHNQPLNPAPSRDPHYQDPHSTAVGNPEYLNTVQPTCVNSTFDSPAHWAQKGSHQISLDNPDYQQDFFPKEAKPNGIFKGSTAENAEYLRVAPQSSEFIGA
T2 sequence (P00533 25-1210): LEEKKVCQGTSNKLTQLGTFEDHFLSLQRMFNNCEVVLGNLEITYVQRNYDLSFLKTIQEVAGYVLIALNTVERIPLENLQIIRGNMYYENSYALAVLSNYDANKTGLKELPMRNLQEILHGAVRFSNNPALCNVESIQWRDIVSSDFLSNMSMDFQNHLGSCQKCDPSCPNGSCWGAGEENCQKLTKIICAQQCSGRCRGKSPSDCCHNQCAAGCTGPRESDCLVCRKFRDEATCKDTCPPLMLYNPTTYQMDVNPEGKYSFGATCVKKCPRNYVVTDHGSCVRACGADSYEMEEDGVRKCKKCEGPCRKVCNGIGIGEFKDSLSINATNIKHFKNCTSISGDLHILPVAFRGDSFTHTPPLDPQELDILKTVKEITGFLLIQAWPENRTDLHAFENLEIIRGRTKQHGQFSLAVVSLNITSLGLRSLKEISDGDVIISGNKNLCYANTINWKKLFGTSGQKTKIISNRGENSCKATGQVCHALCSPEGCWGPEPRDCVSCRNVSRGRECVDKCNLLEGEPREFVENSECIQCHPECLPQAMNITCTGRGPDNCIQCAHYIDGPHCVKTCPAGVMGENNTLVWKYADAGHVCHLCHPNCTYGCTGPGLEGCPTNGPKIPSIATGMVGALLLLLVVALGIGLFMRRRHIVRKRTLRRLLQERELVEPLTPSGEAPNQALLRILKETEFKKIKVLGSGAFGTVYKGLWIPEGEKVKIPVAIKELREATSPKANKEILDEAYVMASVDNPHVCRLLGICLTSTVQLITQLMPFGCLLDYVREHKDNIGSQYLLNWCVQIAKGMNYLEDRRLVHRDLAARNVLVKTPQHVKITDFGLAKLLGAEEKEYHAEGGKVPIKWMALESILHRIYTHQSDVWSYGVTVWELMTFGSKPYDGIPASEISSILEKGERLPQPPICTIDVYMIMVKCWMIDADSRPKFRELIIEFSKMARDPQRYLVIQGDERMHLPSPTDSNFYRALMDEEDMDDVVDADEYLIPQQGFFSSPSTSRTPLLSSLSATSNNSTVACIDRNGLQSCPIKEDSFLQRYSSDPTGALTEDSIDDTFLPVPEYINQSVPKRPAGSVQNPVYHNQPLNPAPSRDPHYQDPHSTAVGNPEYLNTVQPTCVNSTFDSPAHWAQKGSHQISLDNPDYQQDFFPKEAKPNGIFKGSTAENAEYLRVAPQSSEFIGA

SMILES: COCCC1(C)CNC(=O)c2c1[nH]c(-c1ccncc1F)c2Nc1cccc(Cl)c1OC (single isomer, unassigned) [Compound 779]
- IC50 [1]: < 0.1 µM
- IC50 [2]: < 0.1 µM
- IC50 [3]: 0.1 to 1 µM
- IC50 [6]: < 0.1 µM

SMILES: COc1c(Cl)cccc1Nc1c(-c2ccnc(C)n2)[nH]c2c1C(=O)NC[C@H]2CC1COCCO1 (stereo in doubt) [Compound 573, (7R)-3-[(3-chloro-2-methoxyphenyl)amino]-7-[(2R)-1,4-dioxan-2-ylmethyl]-2-(2-methylpyrimidin-4-yl)-1H,5H,6H,7H-pyrrolo[3,2-c]pyridin-4-one]
- IC50 [1]: < 0.1 µM
- IC50 [2]: < 0.1 µM
- IC50 [3]: 0.1 to 1 µM
- IC50 [4]: < 0.1 µM
- IC50 [7]: < 0.1 µM

SMILES: CC[C@@H]1CNC(=O)c2c1[nH]c(-c1ccnc(N)n1)c2Nc1cccc(Cl)c1OC [189a]
- IC50 [1]: < 0.1 µM
- IC50 [2]: < 0.1 µM
- IC50 [3]: 0.1 to 1 µM
- IC50 [4]: < 0.1 µM
- IC50 [5]: < 0.1 µM
- IC50 [8]: < 0.1 µM
- IC50 [6]: < 0.1 µM

SMILES: COc1ccc2nccc(-c3[nH]c4c(c3Nc3cccc(Cl)c3OC)C(=O)NC[C@H]4C)c2n1 [310a]
- IC50 [1]: < 0.1 µM
- IC50 [2]: < 0.1 µM
- IC50 [3]: < 0.1 µM
- IC50 [4]: < 0.1 µM
- IC50 [5]: < 0.1 µM
- IC50 [8]: < 0.1 µM
- IC50 [6]: < 0.1 µM

SMILES: COCC[C@@H]1CNC(=O)c2c1[nH]c(-c1ccnc(C)n1)c2Nc1cccc(F)c1OC [453a]
- IC50 [1]: < 0.1 µM
- IC50 [2]: < 0.1 µM
- IC50 [3]: > 1 µM
- IC50 [4]: 0.1 to 1 µM
- IC50 [5]: 0.1 to 1 µM
- IC50 [8]: 0.1 to 1 µM

SMILES: COc1c(F)cccc1Nc1c(-c2ccncc2F)[nH]c2c1C(=O)NC[C@H]2C[C@@H]1CCO1 [Compound 422a, (7R)-3-[(3-fluoro-2-methoxyphenyl)amino]-2-(3-fluoropyridin-4-yl)-7-[(2R)-oxetan-2-ylmethyl]-1H,5H,6H,7H-pyrrolo[3,2-c]pyridin-4-one]
- IC50 [1]: < 0.1 µM
- IC50 [2]: < 0.1 µM
- IC50 [3]: 0.1 to 1 µM
- IC50 [4]: < 0.1 µM
- IC50 [5]: < 0.1 µM
- IC50 [8]: < 0.1 µM
- IC50 [6]: 0.1 to 1 µM
- IC50 [7]: < 0.1 µM
